Measured values taken from US20240082242A1, “COMBINATION THERAPIES” (IMBRIA PHARMACEUTICALS, INC., priority 2021, published 2024).
Each block holds one molecule with its values, some of them ahead of it.

Assays:
[1] = test system: TAC-induced heart failure in mice; test: Transverse aortic constriction (TAC) model of heart failure; format: in vivo, mouse; conditions: for fibrosis of myocardial tissue after six weeks: Masson's trichome, percentage of fibrotic heart tissue, control 10.7±1; for left ventricular ejection fraction (EF) throughout the six-week study: minipump; for left ventricular fractional shortening (FS) at Week 6: CV-8972 10, CV-8814 7.5 mg/kg/day, control 34%±3%; for isovolumic relaxation time (IVRT) at Week 6: control 35±1; for isovolumic relaxation time (IVRT) at the three-week assessment: control 36±1
Description: Studies were conducted to evaluate and compare the efficacy of the reference compound TMZ with CV-8814 and CV-1018972 on ventricular remodeling, preservation of heart function and prevention of fibrosis in a transverse aortic constriction (TAC) model of heart failure in mice.
FIG. 30 is a schematic of the transverse aortic constriction (TAC) protocol used to test the ability of various compounds to protect the heart against heart failure. The aortic arc was exposed via midline incision in the chest cavity of anesthetized mice. A 27-gauge needle was tied against the transverse aorta and then promptly removed to create a ligature constriction. In vivo cardiac function was assessed by transthoracic echocardiography performed at 24-hour, 3-week, and 6-week time-points after TAC. Ventricular remodeling was determined by evaluation of heart weights (HW) and heart weight to body weight ratios (HW/BW). At study termination, hearts were excised, fixed, sectioned at 6 μm and stained with Masson's trichome. The area of fibrosis in myocardial tissue was measured by computerized planimetry on five random fields per heart. A total of 65 to 75 fields were analyzed per treatment group and differences were analyzed by Student's t-test.
Three separate studies were performed to evaluate the efficacy of single agents and combinations with metabolic enhancers in the TAC model of heart failure. In the first study, mice were treated with either trimetazidine alone or trimetazidine+nicotinamide+succinate. In the second study, mice were treated with CV-8814 alone or trimetazidine+nicotinic acid+succinate. In the third study, mice were treated with […], CV-8814, or CV-8972. Overall, the activities of trimetazidine, CV-8814, and CV-8972 on most study endpoints were in good agreement across the three studies. In the third study, the three compounds were analyzed at equivalent mg/kg/day doses on a formula weight basis: 6 mg/kg/d for trimetazidine, 7.5 mg/kg/day for CV-8814; and 10 mg/kg/day for CV-8972. Therefore, the results from the third study are summarized here.

explanted mouse hearts = test: Langendorff ischemia-reperfusion protocol; conditions: for infarct size: 20 μM (each) perfusion, triphenyltetrazolium staining, control 68%; for reduction of myocardial infarct size: 20 μM, vs control
Description: Studies were conducted to evaluate the effect of CV-8814, a pFOX inhibitor, on protecting heart tissue from ischemia/reperfusion (I/R) injury. Similar studies were performed with trimetazidine (TMZ) as a representative pFOX reference compound. Studies were performed with TMZ alone and TMZ in combination with the metabolic enhancers (e.g., nicotinic acid) for a comparison of single agent and combination agent pharmacologic potencies. FIG. 25 is a schematic of the Langendorff Ischemia-Reperfusion protocol used to test the ability of various compounds to protect the heart from ischemic injury. Test compounds were dissolved at 20 μM in Krebs-Henseleit buffer and perfused through the tissue of mouse hearts at a constant pressure starting at time 0. For each treatment group, 10-18 hearts were tested. A Mikro-tip catheter was inserted into left ventricles to measure cardiac functions, including heart rate, coronary flow, left ventricular systolic and end-diastolic pressure, at the end of the baseline perfusion at 20 minutes. […] At the end of perfusion, hearts were cross-sectioned into five slices, and infarct size was measured by computerized planimetry of triphenyltetrazolium stained heart tissue sections. The concept of combining a pFOX inhibitor with metabolic enhancers (e.g. nicotinamide, nicotinic acid, and succinate) was evaluated in combination Langendorff I/R studies. The combinations included TMZ/nicotinamide/succinate (all at a concentration of 20 μM; coded TNS) and TMZ/nicotinic acid/succinate (all at a concentration of 20 μM; coded TNC).

[2] = test system: cardiac glucose metabolism; test: PET imaging of 18F-FDG uptake after CV-8972 injection; format: in vivo, rat
Text: (§1) The effects of CV-8972, a partial fatty acid oxidation inhibitor, on glucose and fatty acid metabolism were investigated using non-invasive positron emission tomography (PET) imaging. The PET radiotracer ^18F fluorodeoxyglucose (FDG), a radiolabeled glucose analog, was used to evaluate cardiac glucose metabolism, and the PET radiotracer ^18F fluoro-6-thia-heptadecanoic acid (FTHA), a radiolabeled long-chain fatty acid (LCFA) analog, was used to evaluate fatty acid beta oxidation. Both radiotracers are “entrapped” in cells in a way that is proportional to either glucose or fatty acid metabolism. For example, high ^18F-FDG or ^18F-FTHA signal indicates high glucose or fatty acid metabolism, respectively, while, conversely, diminished uptake indicates lower metabolism.
(§2) PET imaging with ^18F-FDG and ^18F-FTHA was performed in healthy rats. PET images were acquired dynamically for 120 minutes after tracer injection to capture dynamic changes in cardiac glucose and fatty acid metabolism. For each tracer, animals were imaged twice, once after injection of vehicle (phosphate buffered saline, PBS) or CV-8972 (80 mg/3 mL/kg), subcutaneously injected to the back of animals 15 min prior to PET imaging.
(§3) FIG. 1 is a schematic of the positron emission tomography (PET) imaging study design used to monitor the uptake of ^18F-fluorodeoxyglucose (^18F-FDG) and ^18F-14(R,S)-(18)F-fluoro-6-thia-heptadecanoic acid (^18F-FTHA) into heart tissue of rats in response to treatment with CV-8972. To monitor uptake of ^18F-FDG, rats were fasted for 16 hours prior to day 1. On day 1, rats were given phosphate-buffered saline (PBS) at time 0, and 15 minutes later ^18F-FDG was administered and traced in vivo by PET for two hours following administration. Rats were again fasted for 16 hours prior to day 3. On day 3, rats were given CV-8972 at time 0, and 15 minutes later ^18F-FDG was administered and traced in vivo by PET for two hours following administration. Immediately following the second PET scan, the animals were sacrificed, and the levels of gamma radioactivity in the blood, heart, and skeletal muscle were measured. To monitor uptake of ^18F-FTHA, rats were allowed to eat prior to day 1. On day 1, rats were given PBS at time 0, and 15 minutes later ^18F-FTHA was administered and traced in vivo by PET for two hours following administration. Rats were allowed to eat prior to day 3. On day 3, rats were given CV-8972 at time 0, and 15 minutes later ^18F-FTHA was administered and traced in vivo by PET for two hours following administration. Immediately following the second PET scan, the animals were sacrificed, and the levels of gamma radioactivity in the blood, heart, and skeletal muscle were measured.
(§4) Dynamic positron emission tomography/computed tomography (PET/CT) imaging was obtained with a Mediso nanoScan 122S PET/CT system. Cardiac glucose and fatty acid metabolisms were visualized by tracking ^18F-FDG (NCM-USA LLC, NY, USA) and ^18F-FTHA (Department of Radiology, New York University School of Medicine, NY, USA), respectively. Before the ^18F-FDG scan, rats were fasted overnight for at least 16 hours to minimize the physiological uptake of the radiotracer to cardiomyocyte. Either vehicle (phosphate buffered saline) or CV-8972 (80 mg/3 mL/kg) was subcutaneously injected to the back of animals 15 min prior to PET imaging. Animals were then placed on the scanner, and high-resolution CT images was obtained. Following, dynamic PET was started at the same time as the injection of ^18F-FDG (37 MBq, 1 mCi/0.5 mL/body) via tail vein and recorded for 120 min. Each animal underwent 2 scan sessions, one after vehicle injection and another after CV-8972 injection, with 2 or more days interval (average 2.9 days, 2-6 days). The order of the 2 imaging sessions was randomized among rats. For ^18F-FTHA (37 MBq, 1 mCi/0.5 mL/body), animals received 2 scan sessions under same conditions as those for ^18F-FDG except for fed condition. […]

[3] = test system: fatty acid beta oxidation; test: PET imaging of 18F-FTHA uptake after CV-8972 injection; format: in vivo, rat
Text: as §1, §2, §3, §4

[4] = test system: radioactivity in the heart, skeletal muscle, and blood; test: Ex vivo quantification of radiotracer uptake by gamma counting; format: in vivo, rat
Description: Shortly after the final PET/CT scan, blood was taken from abdominal vein under anesthesia with isoflurane (3-5%), and then animals were euthanized by exsanguination. After thorough perfusion with PBS, the heart and skeletal muscle (right brachium) were harvested. Radioactivity in the heart, muscle, and blood was determined with a Wizard2 2480 automatic gamma counter (Perkin Elmer, Waltham, MA) and % ID/g was calculated for each organ.
The radioactivity in the heart, skeletal muscle, and blood was also determined with a gamma counter shortly after PET/CT imaging for further ex vivo validation.

[5] = mouse, iv, 10 mg/kg
[6] = 20 μM perfusion, initial single agent study
[7] = static analysis at 30 minutes, CV-8972 vs saline
[8] = two-compartment model, CV-8972 80 mg/kg s.c. vs PBS
[9] = CV-8972 80 mg/kg s.c. vs PBS, fed rats
[10] = gamma counter shortly after PET/CT, CV-8972 80 mg/kg s.c., mean±SD
[11] = gamma counting, CV-8972 vs control

Structure (SMILES): O=C(O)c1cccnc1 [Nicotinic acid, nicotinic acid, reference compound]
- fibrosis of myocardial tissue after six weeks [1]: 8.2±1%
- left ventricular ejection fraction (EF) throughout the six-week study ([1]; third study): neither TMZ nor nicotinic acid had a beneficial effect

Structure (SMILES): COc1ccc(CN2CCNCC2)c(OC)c1OC [TMZ, trimetazidine]
- infarct size (explanted mouse hearts): 56±3%
- LVDP (explanted mouse hearts; 20 μM TMZ alone, separate study, printed as TMZ vs. control): 49±5 mm Hg
- LVDP at T20 (explanted mouse hearts; 20 μM each, combination study): 56±6 mm Hg
- LVDP at T170 (explanted mouse hearts; 20 μM each, combination study): 49±5 mm Hg
- reduction of myocardial infarct size (explanted mouse hearts): ~9%
- fibrosis of myocardial tissue after six weeks [1]: 7.6±1%
- diastolic function during TAC-induced heart failure ([1]; TMZ 6 mg/kg/d): did not preserve diastolic function
- effect on FS ([1]; TMZ 6 mg/kg/d): did not have a significant effect
- left ventricular ejection fraction (EF) throughout the six-week study ([1]; third study): neither TMZ nor nicotinic acid had a beneficial effect

Structure (SMILES): COc1ccc(CN2CCN(CCO)CC2)c(OC)c1OC [CV-8814, 2-[4-[(2,3,4-trimethoxyphenyl)methyl]piperazin-1-yl]ethanol]
- infarct size (explanted mouse hearts): 52±4%
- left ventricular developed pressure (LVDP) at 20 min (explanted mouse hearts; [6]): 48±8 mmHg
- left ventricular developed pressure (LVDP) at 170 min (explanted mouse hearts; [6]): 63±5 mm Hg
- coronary flow at the end of the reperfusion period (explanted mouse hearts; 20 μM perfusion, initial single agent study, control 54±6): 90±14 μl/mL
- reduction of myocardial infarct size (explanted mouse hearts): ~16%
- left ventricular fractional shortening (FS) at Week 6 [1]: 44%±3%
- fibrosis of myocardial tissue after six weeks [1]: 6.6±0.6%
- isovolumic relaxation time (IVRT) at Week 6 [1]: 28 ± 2 ms
- isovolumic relaxation time (IVRT) at the three-week assessment [1]: 33 ± 1 ms
- left ventricular ejection fraction (EF) throughout the six-week study ([1]; third study): preserved

- conversion of CV-8972 in vivo [5]: rapidly converted to CV-8814
Structure (SMILES): COc1ccc(CN2CCN(CCOC(=O)c3cccnc3)CC2)c(OC)c1OC [CV-8972, 2-[4-[(2,3,4-trimethoxyphenyl)methyl]piperazin-1-yl]ethyl pyridine-3-carboxylate]
- average SUV of 18F-FDG in the heart at 120 min ([2]; CV-8972 80 mg/3 mL/kg s.c. 15 min before PET, fasted healthy rats, mean±SD): 12.56±7.82
- 18F-FDG signal in the blood, single dynamic frames ([2]; CV-8972 80 mg/kg s.c. vs PBS): did not clearly affect
- 18F-FDG signal in the skeletal muscle and blood, last 30 minutes (90-120 minutes) ([2]; CV-8972 80 mg/kg s.c. vs PBS): slightly lower signal
- 18F-FDG uptake in skeletal muscle, single dynamic frames ([2]; CV-8972 80 mg/kg s.c. vs PBS): slightly lower
- 18F-FDG uptake in the myocardium, last 30 minutes of PET acquisition (90-120 minutes) ([2]; CV-8972 80 mg/kg s.c. vs PBS): significantly higher
- fold increase of heart 18F-FDG SUV at 120 min over control group ([2]; CV-8972 80 mg/kg s.c., vs PBS control 0.89±0.62): approximately 14 fold
- change in 18F-FDG SUV in skeletal muscle, static analysis [2, 7]: minimal change
- fold increase in 18F-FDG SUV in rat heart tissue, static analysis [2, 7]: 12 fold
- 18F-FDG myocardial uptake by kinetic modeling [2, 8]: significantly higher myocardial uptake
- 18F-FDG skeletal muscle uptake by kinetic modeling [2, 8]: lower
- 18F-FTHA blood signal, last 30 minutes (90-120 minutes) ([3]; CV-8972 80 mg/kg s.c. vs PBS): unaffected
- 18F-FTHA myocardial signal, last 30 minutes (90-120 minutes) ([3]; CV-8972 80 mg/kg s.c. vs PBS): slightly higher without reaching statistical significance
- 18F-FTHA signal in the blood, single dynamic frames [3, 9]: did not clearly affect
- 18F-FTHA uptake in the heart, single dynamic frames [3, 9]: no statistically significant changes
- 18F-FTHA uptake in the skeletal muscle, single dynamic frames [3, 9]: slightly higher uptake
- 18F-FTHA signal in the skeletal muscle, last 30 minutes (90-120 minutes) ([3]; CV-8972 80 mg/kg s.c. vs PBS, reached statistical significance): slightly higher signal
- initial fold increase of 18F-FTHA PET signal in heart after CV-8972 administration ([3]; from 18F-FTHA circulating in the blood compartment, followed by washout over 120 min): ~2 fold
- 18F-FTHA uptake into the myocardium and skeletal muscle by kinetic modeling ([3]; three-compartment model, CV-8972 80 mg/kg s.c. vs PBS): significantly higher uptake
- mean radioactivity of the heart, 18F-FDG [4, 10]: 4.25±1.03 % ID/g
- mean radioactivity of the heart, 18F-FTHA [4, 10]: 1.98±0.53 % ID/g
- radioactivity of skeletal muscle and blood vs control ([4]; gamma counting, 18F-FDG and 18F-FTHA): did not show clear differences
- fold of heart radioactivity over control, 18F-FDG [4, 11]: 5.6 fold
- fold of heart radioactivity over control, 18F-FTHA [4, 11]: 3.6 fold
- left ventricular fractional shortening (FS) at Week 3 ([1]; CV-8972 10 mg/kg/day, control 37%±3%): 47%±3%
- left ventricular fractional shortening (FS) at Week 6 [1]: 46%±3%
- fibrosis of myocardial tissue after six weeks [1]: 6.6±0.6%
- isovolumic relaxation time (IVRT) at Week 6 [1]: 31 ± 2 ms
- isovolumic relaxation time (IVRT) at the three-week assessment [1]: 32 ± 1 ms
- left ventricular ejection fraction (EF) throughout the six-week study ([1]; third study): preserved
- heart weight to body weight ratio ([1]; third study, CV-8972 10 mg/kg/day, control 9.1±0.5): 7.4 ± 0.3 mg/g
- left ventricular mass ([1]; third study, CV-8972 10 mg/kg/day, control 195±12): 156 ± 10 mg
- heart weight ([1]; third study, subcutaneous osmotic minipump, CV-8972 10 mg/kg/day, control 270±14): 225 ± 11 mg
